Counter-ions that a name gives are not always drawn. Like-named read-outs stand apart in the source and are kept apart here.
Legend:
[1] = 28-day study in rats; assay type: in vivo
[2] = dog, in vivo
[3] = test system: NCI-H322M; assay: Growth inhibition, neutral red assay, NCI-H322M; assay type: cell-based, human; details: free base, five days
Procedure: (§1) Compound I's activity is not confined to activity against colon cancer cell lines or animal models of colon cancer. It has a broad range of anti-neoplastic effects in various neoplastic cell lines. Various types of human cancer cell lines were propagated under sterile conditions in RPMI 1640 medium with 10% fetal bovine serum, […] L-glutamine and sodium bicarbonate. To determine growth inhibitory effects of Compound I, cells were seeded in 96-well plates at a density of 1000 cells per well. Twenty-four hours after plating, the cells were dosed with various concentrations of the free base of Compound I solubilized in DMSO (final concentration 0.1%). The effect of the drug on tumor cell growth was determined using the neutral red cytotoxicity assay following five days of continuous treatment. Neutral red is a dye that is selectively taken up by viable cells by an ATP-dependent transport mechanism.

[4] = Single, escalating dose human safety study; assay type: in vivo; details: oral
[5] = test system: MDA-MB-231; assay: Growth inhibition, neutral red assay, MDA-MB-231; assay type: cell-based, human; details: free base, five days
Procedure: as §1

[6] = test system: LNCaP prostate tumor cell line; assay: Histone-associated DNA fragmentation in LNCaP cells; assay type: cell-based; details: 50 μM free base, up to 4 days
Procedure: (§2) The androgen-sensitive prostate tumor cell line, LNCAP (from ATCC (Rockville, Md.)) was propagated under standard conditions using […] medium containing 5% fetal calve serum and 2 mM glutamine. Primary prostate epithelial cell cultures (PrEC) derived from normal prostate (from Clonetics Inc. (San Diego, Calif.)) were grown under the same conditions as the tumor cell line except a serum-free medium optimized for the growth of such cultures was used (Clonetics Inc). For the experiments, LNCaP or PrEC cells were seeded in 96 well plates at a density of 10,000 cells per well. After 24 hours, the cells were treated with either vehicle (0.1% DMSO) or 50 μM Compound I (freebase) solubilized in DMSO. After various drug treatment times (4, 24, 48, 72, or 99 hours) the cells were lysed and processed for measurement of histone-associated DNA as an indicator of apoptotic cell death (see, Piazza et al., Cancer Research 57: 2452-2459, 1997).
(§3) This is in marked contrast to conventional chemotherapeutics that induce apoptosis or necrosis in rapidly growing normal and neoplastic cells alike.

[7] = test system: PrEC primary prostate epithelial cells derived from normal prostate; assay: Histone-associated DNA fragmentation in PrEC cells; assay type: cell-based; details: 50 μM, up to 4 days
Procedure: as §2, §3

[8] = rat, in vivo
[9] = Seven-day dose-range finding study in rats; assay type: in vivo; details: seven days
[10] = test system: PC-3; assay: Growth inhibition, neutral red assay, PC-3; assay type: cell-based, human; details: free base, five days
Procedure: as §1

[11] = test system: aberrant crypt foci (AOM-induced carcinogenesis); assay: Azoxymethane-induced aberrant crypt foci (ACF) model in rats; assay type: in vivo, male Fisher 344 rats; details: for Mean ACF/colon (+SE): free base, 5 weeks
Procedure: The growth inhibition IC50 value obtained for Compound I was 0.7 μM in the SW-480 cell line. […] This established rodent model of azoxymethane (“AOM”)-induced carcinogenesis was used to assess the effects of Compound I (free base and salt) on colon cancer development in vivo. ACF are precursors to colonic tumors, and ACF inhibition is predictive of chemo-preventive efficacy.
In the rats in this experiment, ACF initiation was achieved by two consecutive weekly injections of the carcinogen. Compound I was administered one week prior to ACF initiation and for the duration of the experiment. ACFs were scored after 5 weeks of treatment. Compound I was administered orally to male Fisher 344 rats in the rat chow. Daily food consumption (mg/kg body weight) varied over the course of the study, and therefore Compound I dose was expressed a grams per kg of diet to provide a basis of comparison between doses. […] The experimental groups gained less weight than the controls, which was indicative of bloavailability. However, the weight differences were less than 10% and not considered to affect ACF formation.
The free base of Compound I inhibited ACF formation as measured by a reduction of crypts per colon. With the exception of the low dose group (only 0.5 g/kg diet), the differences between treatment and control groups were substantial, and statistically significant in the case of the 1.0 and 2.0 g/kg diet group.

In the case of CC1=C(CC(=O)NCc2ccccc2)c2cc(F)ccc2/C1=C\c1ccncc1 [Compound I, (Z)-5-fluoro-2-methyl-(4-pyridylidene)-3-(N-benzyl)indenylacetamide hydrochloride], the “organ weights” value ([1]; 28 days, 2000 mg/kg/day) is reported as “statistically significant increase in liver weights”, the “clinical observations” value ([1]; 28 days, 50, 500 and 2000 mg/kg/day) is reported as “no abnormal clinical observations” and the “signs of toxicity” value ([2]; 1000 mg/kg) is reported as “no signs of toxicity”. For the same compound, the “drug-related effects” value ([2]; 1000 mg/kg/day) was “At no time in either dosing phase were any obvious signs of drug-related effects observed”, the “GI90 μM NCI-H322M” value [3] was 13.2 µM and the “side effects” value [4] was “no significant side effects at any dose”. For the same compound, the “GI90 μM MDA-MB-231” value [5] was 77.6 µM, the “histone-associated fragmented DNA” value [6] was “significant increase in fragmented DNA” and the “DNA fragmentation” value [7] was “did not affect DNA fragmentation”. For the same compound, the “toxicity findings” value ([8]; ip, 1000 mg/kg) was “reduced body weight gain, with mesenteric adhesions seen in some animals”, the “body weight gain” value ([8]; po, 4000 mg/kg) was “body weight gains were slightly reduced” and the “toxicity findings” value ([9]; 50 mg/kg/day) was “no observable signs of toxicity”. The “toxicity findings” value ([9]; 500 mg/kg/day) was “an increase in absolute and relative liver weights in female rats”, the “toxicity findings” value ([9]; 2000 mg/kg/day) was “labored breathing and/or abnormal respiratory sounds, decreased weights gains and food consumption in male rats, and increased liver weights in female rats” and the “GI90 μM PC-3” value [10] was 82.5 µM. For the same compound, the “Mean ACF/colon (+SE)” value ([11]; 0.5 g/kg diet) was 149 ± 14 ACF/colon, the “Mean ACF/colon (+SE)” value ([11]; 1 g/kg diet) was 111 ± 9 ACF/colon and the “Mean ACF/colon (+SE)” value ([11]; 1.5 g/kg diet) was 132 ± 4 ACF/colon. The “Mean ACF/colon (+SE)” value ([11]; 2.0 g/kg diet) was 107 ± 15 ACF/colon and the “body weight difference versus controls” value ([11]; rats, compound in chow) was “less than 10%”.

From US20040009464A1, “Methods for identifying compounds for inhibition of neoplastic lesions, and pharmacetical compositions containing such compounds” (priority 1998, published 2004)
